From US20110104159A1, “COMPOSITIONS AND METHODS FOR TREATING, CONTROLLING, REDUCING, AMELIORATING, OR PREVENTING ALLERGY” (priority 2006, published 2011)
Several values for one entry are separate records, joined by “and”; a condition that tells them apart may be missing. Identical values can stand only once. Like-named read-outs stand apart in the source and are kept apart here.

Assays:
MPO = assay: Myeloperoxidase (MPO) activity in iris-ciliary body; format: in vivo, Rabbit; conditions: for MPO activity in iris-ciliary body, statistical comparison with CTR: p<0.001; for Mean MPO Unit/g (MPO activity in iris-ciliary body samples): group mean, after the second paracentesis; for MPO Unit/g (raw data of MPO activity in iris-ciliary body samples): individual eyes (DX/SX) of rabbits, samples collected after the second paracentesis, listed as BOL
Experimental: 2.3.2.1 Phosphate Buffer (50 mM; pH=6)
3.9 g of NaH2PO4 2H2O were dissolved in a volumetric flask to 500 ml with water. The pH was adjusted to pH=6 with 3N NaOH.
0.5 g of hexa-decyl-trimethyl-ammonium bromide was dissolved in 100 ml phosphate buffer.
The solution was prepared freshly. Ten microliters of H2O2 (30 wt. %) were diluted to 1 ml with water (solution A). 7.5 mg o-dianisidine 2HCl were dissolved in 45 ml of phosphate buffer and 75 μl of solution A were added.
(§1) Each rabbit was placed in a restraint device and tagged with the alphanumeric code. The formulations were instilled (50 μl) into the conjunctival sac of both eyes 180, 120, 90 and 30 min before the first paracentesis; then 15, 30, 90 min after the first paracentesis. To perform the first paracentesis the animals were anaesthetized by intravenous injection of 5 mg/kg Zoletil® (Virbac; 2.5 mg/kg tiletamine HCl and 2.5 mg/kg zolazepam HCl) and one drop of local anesthetic (Novesina®, Novartis) was administered to the eye. Anterior chamber paracentesis was performed with a 26 G needle attached to a tuberculin syringe; the needle was introduced into the anterior chamber through the cornea, taking care not to damage the tissues. Two hours after the first paracentesis, the animals were sacrificed with 0.4 ml Tanax® (Intervet International B.V.) and the second paracentesis was performed. About 100 μl of aqueous humor were removed at the second paracentesis. Aqueous humor was immediately split in four aliquots and stored at −80° C. until analysis. Then both eyes were enucleated and the iris-ciliary body was carefully excised, placed in polypropylene tubes, and stored at −80° C. until analysis.
The activity of MPO was measured as previously described by Williams et al. The iris-ciliary bodies were carefully dried, weighed and immersed in 1 ml of hexa-decyl-trimethyl-ammonium bromide solution. Then, the samples were sonicated for 10 sec on ice by a ultrasound homogenizer (HD 2070, Bandelin electronic), freeze-thawed three times, sonicated for 10 sec and centrifuged at 14,000 g for 10 min to remove cellular debris. An aliquot of the supernatant (40-200 μl) was diluted to 3 ml with the o-dianisidine 2HCl/H2O2 solution. The change in absorbance at 460 nm was continuously monitored for 5 min by a spectrophotometer (UV/Vis Spectrometer Lambda EZ 201; Perkin Elmer). The slope of the line (Δ/min) was determined for each sample and used to calculate the number of units of MPO in the tissue as follows:
where ε=11.3 mM^−1. Values were expressed as units of MPO/g of tissue.

[1] = tested on: ovalbumin-sensitized guinea pigs; assay: Conjunctival eosinophil infiltration (histology) in OVA-challenged guinea pigs; format: in vivo, guinea pig; conditions: 0.4% eye drops; 24 h after OVA challenge; vs OVA-treated animals
Experimental: Male Dunkin-Hartley guinea pigs were actively immunized by i.p. injection of 200 μg OVA in 2 ml saline with 40 mg aluminum hydroxide (positive control) or saline alone (negative control), as previously reported. […] Negative controls received saline alone.
Conjunctival clinical symptoms were rated blind on both eyes using the following scale: 0, no symptoms; 1, slight conjunctival redness with or without tears; 2, mild conjunctival redness with tears and mild chemosis; 3, mild conjunctival redness with tears and moderate chemosis; 4, severe conjunctival redness with tears and partial lid eversion; 5, severe conjunctival redness with tears and lids more than half closed. The animals were euthanized 24 h after OVA challenge by i.p. injection of Tanax® (3 ml/kg; Hoechst AG, Frankfurt-am-Main, Germany) and the conjunctivas were carefully excised and each was divided into two samples for subsequent investigations. One sample was fixed in 10% buffered paraformaldehyde solution and paraffin-embedded; slides, 6 μm thick, were stained as described. The number of eosinophils in each field was counted under light microscopy (×500 magnification). In the other sample eosinophil peroxidase activity was measured.

leukocytes (PMN) = assay: Leukocytes (PMN) measurement in aqueous humor; format: in vivo, Rabbit; conditions: for PMN in aqueous humor at the second paracentesis, Mean: group mean; for PMN in aqueous humor at the second paracentesis: individual eye sample, listed as BOL
Experimental: as §1
For the determination of the number of leukocytes we used a haemocytometer (Improved Neubauer Chamber; Brigth-line, Hausser Scientific) and a Polyvar 2 microscope (Reichert-Jung).

ICAM-1 = assay: IL-4 and TNF-α-induced ICAM-1 expression in HConEpiC cell lysates (Luminex); format: cell-based, human; conditions: all doses 10-1000 nM, 24 h
Experimental: (§2) Primary human conjunctival epithelial cells (HConEpiC) were seeded in two 24-well plates in EpiLife medium+1% Human Corneal Growth Supplement (HCGS; contains bovine pituitary extract, bovine insulin, hydrocortisone, bovine transferrin and mouse epidermal growth factor) at 2×10^4 cells/well. When the cells were confluent (4-5 days after seeding), they were incubated in EpiLife GF medium without glucocorticoids (EpiLife basic medium supplemented with 50 μg/ml bovine pituitary extract, 5 μg/ml bovine insulin and 5 ng/ml mouse epidermal growth factor) for 18 h. […] Culture medium was collected. Cytokine analysis was performed on the culture medium using 2 separate cytokine/chemokine Luminex kits (Kit 1: G-CSF, GM-CSF, IL-6, IL-8, IP-10, MCP-1, RANTES; Kit 2: eotaxin-3, CTACK). ICAM-1 expression was determined in cell lysates using a Luminex kit.
Median fluorescence intensity (MFI) was used to obtain the concentration of each cytokine and ICAM-1 in pg/ml based on the standard curve of each cytokine assayed by Luminex using the StatLIA software. ICAM-1 expression was expressed as pg/mg protein. All data were expressed as mean±SEM. Statistical analysis was performed using a two-way ANOVA-Contrast test with Factor 1 being drug and Factor 2 being dose (JMP 8 software, SAS Institute, Cary, N.C.). […] Data were analyzed either directly or after Box-Cox transformations (9, 10).

human eosinophils = assay: Cytokine-sustained (GM-CSF or IL-5) eosinophil survival; format: cell-based; conditions: for IC50: Homo sapiens, Eosinophil, 48 h, 0.1% FBS
[2] = tested on: primary human conjunctival epithelial cells (HConEpiC); assay: IL-4 and TNF-α-induced cytokine release in HConEpiC (Luminex); format: cell-based; conditions: 24 h
Experimental: as §2
Median fluorescence intensity (MFI) was used to obtain the concentration of each cytokine and ICAM-1 in pg/ml based on the standard curve of each cytokine assayed by Luminex using the StatLIA software. ICAM-1 expression was expressed as pg/mg protein. All data were expressed as mean±SEM. Statistical analysis was performed using a two-way ANOVA-Contrast test with Factor 1 being drug and Factor 2 being dose (JMP 8 software, SAS Institute, Cary, N.C.). P<0.05 was considered statistically significant. Data were analyzed either directly or after Box-Cox transformations (9, 10).

[3] = tested on: cultured human ocular cells; conditions: cultured human ocular cells [13, 29]; cited from earlier work

## Cc1ccc2c(NC[C@](O)(CC(C)(C)c3cc(F)cc4c3OCC4)C(F)(F)F)cccc2n1 [BOL-303242-X, (R)-1,1,1-Trifluoro-4-(5-fluoro-2,3-dihydrobenzofuran-7-yl)-4-methyl-2-{[(2-methyl-5-quinolyl)amino]methyl}pentan-2-ol]
MPO; 0.1% topical
  MPO activity in iris-ciliary body, statistical comparison with CTR: statistical significance
MPO; 0.1% treatment
  Mean MPO Unit/g (MPO activity in iris-ciliary body samples): 0.971 Unit/g
  MPO Unit/g (raw data of MPO activity in iris-ciliary body samples): 1.04 Unit/g and 1.00 Unit/g and 1.14 Unit/g and 1.06 Unit/g and 1.22 Unit/g and 0.61 Unit/g and 1.05 Unit/g and 0.65 Unit/g
MPO; 0.5% topical
  MPO activity in iris-ciliary body, statistical comparison with CTR: statistical significance
MPO; 0.5% treatment
  Mean MPO Unit/g (MPO activity in iris-ciliary body samples): 0.775 Unit/g
  MPO Unit/g (raw data of MPO activity in iris-ciliary body samples): 0.85 Unit/g and 0.93 Unit/g and 0.79 Unit/g and 1.03 Unit/g and 0.75 Unit/g and 0.74 Unit/g and 0.54 Unit/g and 0.58 Unit/g
MPO; 1% topical
  MPO activity in iris-ciliary body, statistical comparison with CTR: statistical significance
MPO; 1% treatment
  Mean MPO Unit/g (MPO activity in iris-ciliary body samples): 0.542 Unit/g
  MPO Unit/g (raw data of MPO activity in iris-ciliary body samples): 0.66 Unit/g and 0.68 Unit/g and 0.49 Unit/g and 0.40 Unit/g and 0.34 Unit/g and 1.02 Unit/g and 0.31 Unit/g and 0.43 Unit/g
[1]
  Eosinophil infiltration of the conjunctiva (histology): much less marked
Leukocytes (PMN); 0.1% topical
  PMN in aqueous humor at the second paracentesis, Mean: 28.333 number/μl
  PMN in aqueous humor at the second paracentesis: 20 number/μl (4×) and 40 number/μl and 50 number/μl
Leukocytes (PMN); 0.5% topical
  PMN in aqueous humor at the second paracentesis, Mean: 21.250 number/μl
  PMN in aqueous humor at the second paracentesis: 40 number/μl (2×) and 20 number/μl (3×) and 10 number/μl (3×)
Leukocytes (PMN); 1% topical
  PMN in aqueous humor at the second paracentesis, Mean: 28.750 number/μl
  PMN in aqueous humor at the second paracentesis: 30 number/μl (3×) and 20 number/μl (3×) and 40 number/μl (2×)
ICAM-1
  IL-4 plus TNF-α-induced ICAM-1 expression in cell lysates: significantly decreased
Human eosinophils; GM-CSF 200 pM or IL-5 100 pM, data not shown
  Reversal of cytokine-sustained survival at higher cytokine concentrations: not, in fact, able to reverse cytokine-sustained survival
Human eosinophils; GM-CSF 70 pM, read-out: IC50, inhibition of GM-CSF-induced eosinophil survival
  IC50: 0.158 µM
Human eosinophils; IL-5 30 pM, read-out: IC50, inhibition of interleukin-5-induced eosinophil survival
  IC50: 0.399 µM
[2]; 100 nM
  Eotaxin-3 level induced by IL-4 plus TNF-α: significant elevation of eotaxin-3
[2]; 10, 30, 300 and 1000 nM
  Eotaxin-3 level induced by IL-4 plus TNF-α: no effect
[2]; 10-1000 nM
  IL-8 level induced by IL-4 plus TNF-α: no effect
[2]; 30, 100, 300 and 1000 nM
  IP-10 level induced by IL-4 plus TNF-α: significantly inhibited
[2]; 300 and 1000 nM
  IL-6 level induced by IL-4 plus TNF-α: significantly reduced
[2]; all doses 10-1000 nM
  CTACK level induced by IL-4 plus TNF-α: significant reduction
  G-CSF level induced by IL-4 plus TNF-α: significantly elevated
  GM-CSF level induced by IL-4 plus TNF-α: significant reduction
  MCP-1 level induced by IL-4 plus TNF-α: significant reduction
  RANTES level induced by IL-4 plus TNF-α: significant reduction
[3]
  Blocking inflammatory cytokine release: equally potent in blocking inflammatory cytokine release
